According to patent publication US10836792B2, “Retro-inverso peptide inhibitors of cell migration, extracellular matrix and endothelial invasion by tumor cells” (ISTITUTO NAZIONALE TUMORI IRCCS “FONDAZIONE G. PASCALE”, priority 2016, dated 2020):
Non-standard residues stand in square brackets, D forms with d. Residues, ends and D or L forms follow the SMILES beside them. Aib = CC(C)(N)C(=O)O

Tests used:
[1] = Stability in human serum, read out by HT1080 matrigel invasion in Boyden chambers; format: in vitro ADME; settings: 10^−3 mol/L in serum 18 hrs at 37° C., then 10 nM, invasion 6 hrs
Description: FIG. 7 The retro-inverso peptide RI-3 is stable when pre-incubated in bovine (A) or human serum (B) as assessed in real time using the xCELLigence technology (A) or in Boyden chambers (B) (Example 7).
The stability of the retro-inverso peptide RI-3 in bovine and human serum was investigated through incubation of the peptide at a 10^−3 mol/L in serum for 18 hrs at 37° C. HT1080 cells were allowed to migrate toward DMEM (CTRL), 10% FBS (None), 10% FBS plus 10 nM RI-3 or 10% FBS with 10 nM RI-3 pre-incubated with bovine serum and the impedance values were automatically monitored in real time by the xCELLigence system for 18 hrs and expressed as cell index. Data represent the means from a quadruplicate experiment representative of 2 replicates. […] The stability of RI-3 in human serum was further investigated in cell invasion experiments performed in Boyden chambers. HT1080 cells were allowed to invade matrigel for 6 hrs, toward DMEM (CTRL), 10% FBS (None), 10% FBS plus 10 nM RI-3 or 10% FBS with 10 nM RI-3 pre-incubated with human serum. For quantitative analysis of cell invasion, the basal value assessed in the absence of FBS (CTRL) was taken as 100% and all values were reported relative to that. Data are the means±SD from a triplicate experiment. *Statistical significance was calculated against None with p<0.005. […]

HT1080 cells = assay: Proliferation of HT1080 cells (xCELLigence); format: cell-based, human; settings: 10 μM, 2-26 time range
Description: Cell proliferation of HT1080 cells was monitored for 75 hrs using the xCELLigence technology. Cells (1×10^3 cells/well) were seeded on E-plates in growth medium (None) or growth medium plus 10 μM RI-3 and allowed to proliferate at 37° C., 5% CO2. Medium was replaced every 24 hrs (arrows). Impedance value of each well was automatically monitored and expressed as cell index. Data represent mean±SD from a quadruplicate experiment representative of 2 replicates (A). […] In the 2-26 time range the doubling times of cells exposed to diluents or to RI-3 were 16.3828+/−0.22 hrs and 17.7648+/−0.27 hrs, respectively (B).

FPR1 = molecular target: T1, FPR1 (Homo sapiens, UniProt P21462); assay: Agonist-dependent FPR1 internalization in RBL-2H3/ETFR cells (microscopy); format: cell-based; settings: binding experiments at 37° C., FITC-fMLF
T1 construct: expressed in transfected cells; host or cells: rat basophilic leukaemia RBL-2H3/ETFR cells
T1 sequence (P21462 1-350): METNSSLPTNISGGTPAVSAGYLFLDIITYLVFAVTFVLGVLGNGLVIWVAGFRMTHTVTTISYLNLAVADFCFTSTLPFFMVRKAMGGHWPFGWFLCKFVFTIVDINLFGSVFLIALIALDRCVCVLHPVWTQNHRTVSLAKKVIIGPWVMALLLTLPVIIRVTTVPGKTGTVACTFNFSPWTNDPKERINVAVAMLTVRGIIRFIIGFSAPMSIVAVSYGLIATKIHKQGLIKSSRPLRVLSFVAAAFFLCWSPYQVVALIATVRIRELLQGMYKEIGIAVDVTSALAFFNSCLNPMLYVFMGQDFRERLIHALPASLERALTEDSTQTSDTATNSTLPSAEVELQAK
Description: Cell-associated fluorescence was measured using a fluorescence plate reader. The results are depicted in FIG. 3. […] To evaluate the effect of RI-3 on agonist-dependent FPR1 internalization, binding experiments were performed at 37° C. and cells were visualized using a Zeiss 510 Meta LSM microscope. Original magnifications: 630×. Scale bar: 10 μm.

[2] = system: metastatic melanoma A375M6; assay: Matrigel invasion (xCELLigence RTCA), A375M6; format: cell-based, human; settings: 10 nM, 20 hrs
Description: FIG. 8 At the concentration of 10 nM the retro-inverso peptide RI-3 prevents matrigel invasion of tumor cells from human osteosarcoma Saos-2 (A), chondrosarcoma Sarc (B), melanoma A375 (C), metastatic melanoma A375M6 (D), ovarian carcinoma SKOV-3 cells (E), or primary ovarian cancer cells derived from a tumor excision (OV-53) (F), as monitored in real-time for 20 hr as changes in cell index by the xCELLigence RTCA system (Example 8).
To investigate the ability of RI-3 to prevents matrigel invasion of tumor cells form different tissue origins, human osteosarcoma Saos-2 (A), chondrosarcoma Sarc (B) melanoma A375 (C), metastatic melanoma A375M6 (D), ovarian carcinoma SKOV-3 cells (E) or primary ovarian cancer cells derived from a tumor excision (OV-53) (F) were seeded on polymerized matrigel and allowed to invade matrigel in the absence (None) or in the presence of 10 nM RI-3. Cell invasion was monitored in real-time for 20 hrs as changes in cell index by the xCELLigence RTCA system. Data represent mean±SD from quadruplicate experiments. All cell lines were able to cross matrigel, although to a different extent. In all case RI-3 reduced matrigel invasion by about 30%, 31%, 64%, 57%, 53% and 68%, of Saos-2, Sarc, A375, A375M6, SKOV-3 and OV-53 cells, respectively.

THP1 monocytes = assay: Trans-endothelial migration through HUVEC monolayer (xCELLigence RTCA), THP-1; format: cell-based, human; settings: 10 nM, 5 hrs
Description: (§1) FIG. 9 At the concentration of 10 nM the retro-inverso peptide RI-3 affects trans-endothelial migration of human chondrosarcoma Sarc (A), melanoma A375 (B), ovarian carcinoma SKOV-3 (C) cells, or THP1 monocytes (D), as monitored by the xCELLigence RTCA system (Example 9).
(§2) The entry of tumor cells into bloodstream is one of the earliest events of the metastatic process. The ability of RI-3 to affect trans-endothelial migration of human chondrosarcoma Sarc (A) melanoma A375 (B), ovarian carcinoma SKOV-3 (C) cells, or THP1 monocytes (D) was monitored by the xCELLigence RTCA system. Human Umbilical Vein Endothelial Cells (HUVEC) (1×10^4 cells/well) suspended in growth medium, were allowed to grow for 20-25 hrs until they form a confluent monolayer, prior to seeding Sarc, A375, SKOV-3, or THP-1 cells (1×10^4 cells/well) in growth medium in the absence (None) or in the presence of 10 nM RI-3. The experiments were performed twice in quadruplicate. When cells cross the endothelial monolayer, there is a drop in electrical resistance which is monitored in real-time for 5 hrs as the cell index changes due to the rupture of endothelial monolayer. All cell lines were able to reduce endothelial monolayer integrity. The addition of 10 nM RI-3 inhibited the capability of Sarc, A375, SKOV-3, and THP-1 cells to disrupt endothelial monolayers by 17%, 22%, 58%, and 36% respectively.

melanoma A375 = assay: Trans-endothelial migration through HUVEC monolayer (xCELLigence RTCA), A375; format: cell-based, human; settings: 10 nM, 5 hrs
Description: as §1, §2

[3] = system: human chondrosarcoma Sarc; assay: Trans-endothelial migration through HUVEC monolayer (xCELLigence RTCA), Sarc; format: cell-based; settings: 10 nM, 5 hrs
Description: as §1, §2

CC(=O)N[C@H](Cc1ccc(O)cc1)C(=O)N[C@H](CCCNC(=N)N)C(=O)NC(C)(C)C(=O)N[C@H](CCCNC(=N)N)C(N)=O [RI-3, Ac-(D)-Tyr-(D)-Arg-Aib-(D)-Arg-NH2] (Ac-[dY][dR][Aib][dR]-NH2)
inhibitory activity retained after pre-incubation with human serum [1]: 81%
doubling time during exponential growth (HT1080 cells): 17.7648 ± 0.27 h
agonist-dependent FPR1 internalization (FPR1): prevented agonist-dependent FPR1 internalization
reduction of matrigel invasion [2]: ~57%
inhibition of the capability to disrupt endothelial monolayers (THP1 monocytes): 36%
inhibition of the capability to disrupt endothelial monolayers (melanoma A375): 22%
inhibition of the capability to disrupt endothelial monolayers [3]: 17%
